test system: HIV-1 single-round infectious reporter virus; test: Single-round infectious HIV-1 luciferase reporter virus infection of HeLa CD4 cells; format: cell-based; conditions: Human immunodeficiency virus 1, HeLa, 72 h, read-out: EC50 Group from Table 1
Description: • Virus production—Human embryonic Kidney cell line, 293, was propagated in Dulbecco's Modified Eagle Medium (Invitrogen, Carlsbad, Calif.) containing 10% fetal Bovine serum (FBS, Sigma, St. Louis, Mo.). • Virus infection—Human epithelial cell line, HeLa, expressing the HIV-1 receptor CD4 was propagated in Dulbecco's Modified Eagle Medium (Invitrogen, Carlsbad, Calif.) containing 10% fetal Bovine serum (FBS, Sigma, St. Louis, Mo.) and supplemented with 0.2 mg/mL Geneticin (Invitrogen, Carlsbad, Calif.). Virus-Single-round infectious reporter virus was produced by co-transfecting human embryonic Kidney 293 cells with an HIV-1 envelope DNA expression vector and a proviral cDNA containing an envelope deletion mutation and the luciferase reporter gene inserted in place of HIV-1 nef sequences (Chen et al, Ref 41). Transfections were performed using lipofectAMINE PLUS reagent as described by the manufacturer (Invitrogen, Carlsbad, Calif.). Experiment • 1. HeLa CD4 cells were plated in 96 well plates at a cell density of 1×10^4 cells per well in 100 μl Dulbecco's Modified Eagle Medium containing 10% fetal Bovine serum and incubated overnight. • 2. Compound was added in a 2 μl dimethylsulfoxide solution, so that the final assay concentration would be ≦10 μM. • 3. 100 μl of single-round infectious reporter virus in Dulbecco's Modified Eagle Medium was then added to the plated cells and compound at an approximate multiplicity of infection (MOI) of 0.01, resulting in a final volume of 200 μl per well. • 4. Virally-infected cells were incubated at 37 degrees Celsius, in a CO2 incubator, and harvested 72 h after infection. • 5. Viral infection was monitored by measuring luciferase expression from viral DNA in the infected cells using a luciferase reporter gene assay kit, as described by the manufacturer (Roche Molecular Biochemicals, Indianapolis, Ind.). Infected cell supernatants were removed and 50 μl of lysis buffer was added per well. After 15 minutes, 50 μl of freshly-reconstituted luciferase assay reagent was added per well. Luciferase activity was then quantified by measuring luminescence using a Wallac microbeta scintillation counter. • 6. The percent inhibition for each compound was calculated by quantifying the level of luciferase expression in cells infected in the presence of each compound as a percentage of that observed for cells infected in the absence of compound and subtracting such a determined value from 100. • 7. An EC50 provides a method for comparing the antiviral potency of the compounds of this invention. The effective concentration for fifty percent inhibition (EC50) was calculated with the Microsoft Excel Xlfit curve fitting software. For each compound, curves were generated from percent inhibition calculated at 10 different concentrations by using a four paramenter logistic model (model 205). Table 1 is the key for the data in Table 2. Results

Row | SMILES | EC50
1 | COc1cnc(-n2ccnn2)c2[nH]cc(C(=O)C(=O)N3CCN(c4nc(Cl)cc5ccccc45)CC3)c12 [Example 67] | < 1000 nM
2 | COc1ccc(C(=N)NC2CC2)c2[nH]cc(C(=O)C(=O)N3CCN(c4nccc5ccccc45)CC3)c12 [Example 18] | < 1000 nM
3 | COc1cnc(-n2cnc(C)n2)c2[nH]cc(C(=O)C(=O)N3CCN(c4nc(Cl)cc5ccccc45)CC3)c12 [Example 66] | < 1000 nM
4 | COc1ccc(-c2nnn(CC(N)=O)n2)c2[nH]cc(C(=O)C(=O)N3CCN(c4nccc5ccccc45)CC3)c12 [Example 29] | < 1000 nM
5 | COc1ccc(Br)c2[nH]cc(C(=O)C(=O)N3CCN(c4nccc5ccccc45)CC3)c12 [Example 4] | < 1000 nM
6 | CNC(=O)Cn1nnc(-c2ccc(OC)c3c(C(=O)C(=O)N4CCN(c5nccc6ccccc56)CC4)c[nH]c23)n1 [Example 28] | < 1000 nM
7 | COc1ccc(-c2nc(CC#N)n[nH]2)c2[nH]cc(C(=O)C(=O)N3CCN(c4nccc5ccccc45)CC3)c12 [Example 24] | < 1000 nM
8 | Cc1nc(N2CCN(C(=O)C(=O)c3c[nH]c4c(-n5ccnn5)ncc(F)c34)CC2)c2ccccc2n1 [Example 59] | < 1000 nM
9 | COc1ccc(-c2noc(C)n2)c2[nH]cc(C(=O)C(=O)N3CCN(c4nccc5ccccc45)CC3)c12 [Example 20] | < 1000 nM
10 | COc1ccc(-n2ccnc2)c2[nH]cc(C(=O)C(=O)N3CCN(c4nccc5ccccc45)CC3)c12 [Example 5] | < 1000 nM
11 | COc1ccc(C(=N)NNC(=O)CC#N)c2[nH]cc(C(=O)C(=O)N3CCN(c4nccc5ccccc45)CC3)c12 [Example 25] | < 1000 nM
12 | O=C(C(=O)N1CCN(c2nccc3ccccc23)CC1)c1c[nH]c2c(Cl)ccnc12 [Example 37] | < 1000 nM
13 | COc1cnc(C#N)c2[nH]cc(C(=O)C(=O)N3CCN(c4nccc5ccccc45)CC3)c12 [Example 7] | < 1000 nM
14 | COc1nnc(N2CCN(C(=O)C(=O)c3c[nH]c4c(-n5cnc(C)n5)ncc(OC)c34)CC2)c2ccccc12 [Example 57] | < 1000 nM
15 | O=C(C(=O)N1CCN(c2nncc3ccccc23)CC1)c1c[nH]c2c(-c3cn[nH]c3)ncc(F)c12 [Example 93] | < 1000 nM
16 | COc1cnc(-c2cc[nH]n2)c2[nH]cc(C(=O)C(=O)N3CCN(c4ncnc5ccccc45)CC3)c12 [Example 96] | < 1000 nM
17 | COc1ccc(C(N)=O)c2[nH]cc(C(=O)C(=O)N3CCN(c4nccc5ccccc45)CC3)c12 [Example 12] | < 1000 nM
18 | COc1ccc(C#N)c2[nH]cc(C(=O)C(=O)N3CCN(c4nccc5ccccc45)CC3)c12 [Example 43] | < 1000 nM
19 | O=C(C(=O)N1CCN(c2nccc3ccccc23)CC1)c1c[nH]c2c(-c3nc(-c4ccccc4)n[nH]3)ncc(F)c12 [Example 88] | < 1000 nM
20 | O=C(C(=O)N1CCN(c2nccc3ccccc23)CC1)c1c[nH]c2c(-c3nccs3)ccnc12 [Example 38] | < 1000 nM
21 | CCOC(=O)c1ccc(OC)c2c(C(=O)C(=O)N3CCN(c4nccc5ccccc45)CC3)c[nH]c12 [Example 13] | < 1000 nM
22 | O=C(C(=O)N1CCN(c2ncnc3ccccc23)CC1)c1c[nH]c2c(-c3cncnc3)ncc(F)c12 [Example 81] | < 1000 nM
23 | COc1ccc(-c2nc(CC(=O)O)n[nH]2)c2[nH]cc(C(=O)C(=O)N3CCN(c4nccc5ccccc45)CC3)c12 [Example 33] | < 1000 nM
24 | Cc1cc(N2CCN(C(=O)C(=O)c3c[nH]c4c(-c5ncon5)ccc(F)c34)CC2)c2ccccc2n1 [Example 40] | < 1000 nM
25 | O=C(C(=O)N1CCN(c2nncc3ccccc23)CC1)c1c[nH]c2c(-n3ccnn3)ncc(F)c12 [Example 56] | < 1000 nM
26 | COc1cnc(-n2cnc(C)n2)c2[nH]cc(C(=O)C(=O)N3CCN(c4nc(N)cc5ccccc45)CC3)c12 [Example 65] | < 1000 nM
27 | COc1ccc(-n2cccc2)c2[nH]cc(C(=O)C(=O)N3CCN(c4nccc5ccccc45)CC3)c12 [Example 6] | < 1000 nM
28 | COc1cnc(-n2cnc(C)n2)c2[nH]cc(C(=O)C(=O)N3CCN(c4ccc5ccccc5n4)CC3)c12 [Example 90] | < 1000 nM
29 | O=C(C(=O)N1CCN(c2nccc3ccoc23)CC1)c1c[nH]c2c(-c3ncon3)ccc(F)c12 [Example 2] | < 1000 nM
